Here are results for nine substances from US20050209157A1, “Short bioactive peptides and methods for their use” (priority 2001, published 2005).

No end group written: not given here.

Assay [1] relates to S. typhimurium 14028S. The class given is cell-based, Salmonella typhimurium. The settings on record: Table 14.
In assay [2] the test system is S. epidermidis C621. The class given is cell-based, Staphylococcus epidermidis. The settings on record: Table 15.
The test system of assay [3] is E. coli UB1005. The class given is cell-based, Escherichia coli. To be noted: Table 14.
Assay [4] concerns S. aureus (MRSA). The assay is classed as cell-based, Staphylococcus aureus. To be noted: Table 15, strain SAP0017; in µg/mL.
For assay [5], the system named is Candida albicans 105. The class given is cell-based. The settings on record: Table 15; in µg/mL.
The test system of assay [6] is P. aeruginosa H374. The class given is cell-based, Pseudomonas aeruginosa. To be noted: Table 14; in µg/mL.
Assay [7] deals with Pseudomonas aeruginosa H187. The assay is classed as cell-based. To be noted: Table 15; in µg/mL.

In turn, KWKLF-NH2 [P131 (93)] yielded an MIC S. typhimurium 14028S in assay [1] of over 128 µg/mL. This substance also displayed an MIC S. epidermidis C621 in assay [2] of over 128 µg/mL. In assay [3], this substance registered an MIC E. coli UB1005 of over 128 µg/mL. Besides, the “MIC S. aureus SAP0017” value in assay [4] is on record as over 128. Also, in assay [5], the “MIC C. albicans 105” value is recorded as over 128. For the same substance, the “MIC P. aeruginosa H374” value in assay [6] is over 128. In addition, in assay [7], the “MIC P. aeruginosa H187” value is given as over 128.
Substance FALALKA-NH2 [P141 (103)] came in with an MIC S. typhimurium 14028S in assay [1] of over 128 µg/mL. The MIC S. epidermidis C621 in assay [2] is over 128 µg/mL. For the same substance, the MIC E. coli UB1005 in assay [3] is over 128 µg/mL. The “MIC S. aureus SAP0017” value in assay [4] is reported as over 128. In addition, the “MIC C. albicans 105” value in assay [5] was over 128. The “MIC P. aeruginosa H374” value in assay [6] is on record as over 128. In addition, the “MIC P. aeruginosa H187” value in assay [7] is recorded as over 128.
Substance FAKLFAKLAKKFAL-NH2 [P121 (83)] came in with an MIC S. typhimurium 14028S in assay [1] of over 128 µg/mL. This substance returned an MIC S. epidermidis C621 in assay [2] of over 128 µg/mL. In assay [3], this substance came in with an MIC E. coli UB1005 of over 128 µg/mL. In addition, the “MIC S. aureus SAP0017” value in assay [4] is recorded as over 128. Moreover, the “MIC C. albicans 105” value in assay [5] came to 64. The “MIC P. aeruginosa H374” value in assay [6] is over 128. For the same substance, the “MIC P. aeruginosa H187” value in assay [7] was over 128.
In the case of FAKIIAKIAKIAKKIL-NH2 [P139 (101)], the MIC S. typhimurium 14028S in assay [1] is over 128 µg/mL. In addition, the MIC S. epidermidis C621 in assay [2] was found to be 64 µg/mL. In assay [3], this substance returned an MIC E. coli UB1005 of 64 µg/mL. Moreover, in assay [4], the “MIC S. aureus SAP0017” value is over 128. For the same substance, the “MIC C. albicans 105” value in assay [5] is 128. In addition, in assay [6], the “MIC P. aeruginosa H374” value is reported as over 128. Further, in assay [7], the “MIC P. aeruginosa H187” value came out at 128.
FAFAKIIAKIAKKII-NH2 [P140 (102)] had an MIC S. typhimurium 14028S in assay [1] of over 128 µg/mL. In assay [2], this substance returned an MIC S. epidermidis C621 of over 128 µg/mL. The MIC E. coli UB1005 in assay [3] is over 128 µg/mL. The “MIC S. aureus SAP0017” value in assay [4] is reported as over 128. Besides, the “MIC C. albicans 105” value in assay [5] is on record as over 128. Moreover, in assay [6], the “MIC P. aeruginosa H374” value is given as over 128. Moreover, the “MIC P. aeruginosa H187” value in assay [7] is over 128.
For the substance KAKLAKKALAKLL-NH2 [P149 (111)], the MIC S. typhimurium 14028S in assay [1] was over 128 µg/mL. In assay [2], this substance had an MIC S. epidermidis C621 of over 128 µg/mL. The MIC E. coli UB1005 in assay [3] was determined as 32 µg/mL. The “MIC S. aureus SAP0017” value in assay [4] is reported as over 128. Also, the “MIC C. albicans 105” value in assay [5] turned out to be 128. Also, the “MIC P. aeruginosa H374” value in assay [6] is 128. Moreover, the “MIC P. aeruginosa H187” value in assay [7] is listed as over 128.
For YAKLLAKLAKKAL-NH2 [P155 (117)], the MIC S. typhimurium 14028S in assay [1] is over 128 µg/mL. Further, in assay [2], the MIC S. epidermidis C621 is over 128 µg/mL. Besides, the MIC E. coli UB1005 in assay [3] is over 128 µg/mL. Further, the “MIC S. aureus SAP0017” value in assay [4] is over 128. Further, in assay [5], the “MIC C. albicans 105” value is recorded as over 128. Further, the “MIC P. aeruginosa H374” value in assay [6] was over 128. In assay [7], the “MIC P. aeruginosa H187” value was over 128.
With FAKLLAKLAKKAA-NH2 [P93 (59)], in assay [1], the MIC S. typhimurium 14028S is over 128 µg/mL. In addition, in assay [2], the MIC S. epidermidis C621 was over 128 µg/mL. Moreover, the MIC E. coli UB1005 in assay [3] was 128 µg/mL. Also, in assay [4], the “MIC S. aureus SAP0017” value was over 128. For the same substance, in assay [5], the “MIC C. albicans 105” value was 64. For the same substance, the “MIC P. aeruginosa H374” value in assay [6] is 128. Further, the “MIC P. aeruginosa H187” value in assay [7] is on record as over 128.
With FALAKALKKAL-NH2 [P166 (127)], the MIC S. typhimurium 14028S in assay [1] was over 128 µg/mL. The substance further came in with an MIC S. epidermidis C621 in assay [2] of over 128 µg/mL. For the same substance, in assay [3], the MIC E. coli UB1005 is over 128 µg/mL. Moreover, the “MIC S. aureus SAP0017” value in assay [4] was over 128. In assay [5], the “MIC C. albicans 105” value is reported as over 128. Besides, the “MIC P. aeruginosa H374” value in assay [6] is given as over 128. The “MIC P. aeruginosa H187” value in assay [7] is over 128.
